According to ChEMBL document CHEMBL1201862, “PubChem BioAssay data set” (2004):
The source made the active and inactive calls.

Columns and labels:
[1] = HEp-2 cell cytotoxicity, dose response, cytotoxicity control for RSV inhibitor project, HTS (AID 2410); type: functional; conditions: human respiratory syncytial virus
[2] = inhibitors of firefly luciferase expression or activity, dose response, H4 neuroglioma cells, luminescence (AID 1990); type: functional, cell-based
[3] = Luminescence Cell-Based Dose Response HTS to Identify Inhibitors of 5'UTR Stem-Loop Driven Prion Protein mRNA Translation in H4 Neuroglioblastoma Cells. [Related pubchem assays: 1827 (Project Summary), 1813 (Primary HTS)]; type: functional
[4] = inhibitors of SNCA 5'UTR-driven reporter translation, confirmation, H4 neuroglioma cells, luminescence (AID 1988); type: functional, cell-based
[5] = biological target: T1, Tyrosine-protein phosphatase non-receptor type 7 (Homo sapiens, UniProt P35236); experiment: inhibitors of human HePTP phosphatase, […], biochemical, absorbance, leukemia target (AID 521); type: functional
T1 sequence (P35236 whole entry): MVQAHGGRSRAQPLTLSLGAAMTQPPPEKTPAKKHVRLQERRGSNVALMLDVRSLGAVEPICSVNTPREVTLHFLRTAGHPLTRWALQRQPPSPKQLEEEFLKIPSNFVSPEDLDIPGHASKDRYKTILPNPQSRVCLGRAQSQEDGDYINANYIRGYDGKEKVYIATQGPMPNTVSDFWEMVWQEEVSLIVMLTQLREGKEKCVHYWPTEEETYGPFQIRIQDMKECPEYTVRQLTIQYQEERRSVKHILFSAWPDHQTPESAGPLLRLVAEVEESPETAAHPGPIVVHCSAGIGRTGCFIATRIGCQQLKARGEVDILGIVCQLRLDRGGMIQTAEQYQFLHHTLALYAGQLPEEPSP

[6] = A Cell Based Secondary Assay To Explore Cytotoxicity of Compounds that Sensitize Mycobacterium Tuberculosis to Beta-Lactam Antibiotics.; type: functional
[7] = inhibitors of Bluetongue virus cytopathic effect, confirmation, arbovirus, BSR cells (AID 1250); type: functional;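 further: protection from viral cytopathic effect measured as cell viability by ATP luminescence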
Estrogen receptor = biological target: T2, Estrogen receptor (Homo sapiens, UniProt P03372); experiment: potentiators of ERα–SRC-1 coactivator binding, dose response, biochemical, TR-FRET, ERα LBD (AID 737)
T2 sequence (P03372 whole entry): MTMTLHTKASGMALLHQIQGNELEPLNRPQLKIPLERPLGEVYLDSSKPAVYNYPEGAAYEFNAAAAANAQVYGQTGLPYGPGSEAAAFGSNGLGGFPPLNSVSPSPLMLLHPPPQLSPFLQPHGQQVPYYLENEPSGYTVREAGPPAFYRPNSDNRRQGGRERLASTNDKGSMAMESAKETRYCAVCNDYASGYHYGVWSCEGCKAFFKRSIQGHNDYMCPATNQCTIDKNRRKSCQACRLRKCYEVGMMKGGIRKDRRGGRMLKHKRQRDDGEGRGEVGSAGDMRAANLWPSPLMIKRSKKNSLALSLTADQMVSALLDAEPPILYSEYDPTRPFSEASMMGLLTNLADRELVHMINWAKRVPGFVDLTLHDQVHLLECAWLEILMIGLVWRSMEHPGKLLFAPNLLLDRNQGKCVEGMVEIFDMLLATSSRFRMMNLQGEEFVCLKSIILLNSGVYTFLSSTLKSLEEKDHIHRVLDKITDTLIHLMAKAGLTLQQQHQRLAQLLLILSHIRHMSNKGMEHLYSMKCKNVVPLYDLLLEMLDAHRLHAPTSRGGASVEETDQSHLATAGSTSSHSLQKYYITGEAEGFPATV

[8] = NIH-3T3 fibroblast cytotoxicity, dose response, cytotoxicity control, cell-based, fluorescence, Alamar Blue, secondary assay (AID 2327); type: functional;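 further: NIH-3T3 mouse fibroblasts cultured with fluconazole at 8 µg/mL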
[9] = C. albicans growth with fluconazole, confirmation, fluorescence, retest (AID 2467); type: functional, cell-based
[10] = inhibitors of intracellular T. cruzi replication, confirmation, NIH3T3 host cells, beta-gal luminescence (AID 2044); type: functional, cell-based;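 further: intracellular parasites grown in NIH/3T3 mouse fibroblasts as host cells; luminescent beta-galactosidase reporter signal from transgenic T. cruzi replicating inside host cells; inhibitors lower the luminescence signal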
[11] = cytotoxicity toward NIH3T3 fibroblasts, dose response, counter-screen, cell-based, ATP luminescence, mouse fibroblasts (AID 2010); type: functional;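 further: cells exposed to compound for about 90 hours before reading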
[12] = biological target: T3, Mannose-6-phosphate isomerase (Homo sapiens, UniProt P34949); experiment: human PMI inhibitors, high substrate, primary screen, biochemical, fluorescence intensity, high mannose 6-phosphate (AID 1220)
T3 sequence (P34949 whole entry): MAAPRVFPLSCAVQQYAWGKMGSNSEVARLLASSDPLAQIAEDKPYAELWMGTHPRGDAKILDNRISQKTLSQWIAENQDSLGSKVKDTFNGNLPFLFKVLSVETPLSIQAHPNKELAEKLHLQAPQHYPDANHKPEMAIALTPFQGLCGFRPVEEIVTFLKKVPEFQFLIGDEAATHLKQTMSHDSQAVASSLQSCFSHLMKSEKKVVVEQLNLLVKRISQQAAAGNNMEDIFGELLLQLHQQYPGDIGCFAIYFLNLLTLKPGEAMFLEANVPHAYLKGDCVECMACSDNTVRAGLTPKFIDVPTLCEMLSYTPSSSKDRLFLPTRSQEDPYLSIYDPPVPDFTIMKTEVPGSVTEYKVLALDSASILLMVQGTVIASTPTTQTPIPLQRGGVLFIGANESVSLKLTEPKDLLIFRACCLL

[13] = biological target: Glucose-6-phosphate 1-dehydrogenase (Homo sapiens, UniProt P11413); experiment: human G6PD enzyme inhibitors, dose response, selectivity assay for P. falciparum G6PD inhibitor project, biochemical, fluorescence (AID 504792); type: functional
Glucose-6-phosphate 1-dehydrogenase, sequence (P11413 whole entry): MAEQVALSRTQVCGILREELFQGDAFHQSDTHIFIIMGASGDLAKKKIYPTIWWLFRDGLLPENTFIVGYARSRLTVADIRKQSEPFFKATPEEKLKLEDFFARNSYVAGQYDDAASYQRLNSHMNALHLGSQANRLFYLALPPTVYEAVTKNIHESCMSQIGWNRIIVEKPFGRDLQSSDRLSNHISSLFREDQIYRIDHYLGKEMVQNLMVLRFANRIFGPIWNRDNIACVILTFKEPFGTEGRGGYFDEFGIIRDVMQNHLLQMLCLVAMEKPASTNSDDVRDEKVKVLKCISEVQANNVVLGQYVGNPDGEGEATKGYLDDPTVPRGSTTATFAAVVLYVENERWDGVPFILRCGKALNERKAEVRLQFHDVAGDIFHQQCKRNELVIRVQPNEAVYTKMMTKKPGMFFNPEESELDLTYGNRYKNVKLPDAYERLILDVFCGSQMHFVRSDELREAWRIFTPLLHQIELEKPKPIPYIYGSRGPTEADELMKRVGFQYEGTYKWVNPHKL

Vero = experiment: cells; type: functional; conditions: Chlorocebus sabaeus
[14] = biological target: E3 ubiquitin-protein ligase Mdm2 (Homo sapiens, UniProt Q00987); experiment: enhancers of MDM2-luciferase reporter signal, concentration-effect titration, project on inhibitors of MDM2 ubiquitin ligase, cellular assay, luminescent readout, 384-well plate format (AID 1394); type: functional;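 further: MDM2 E3 inhibitors raise luminescence so EC50 is for signal enhancement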
E3 ubiquitin-protein ligase Mdm2, sequence (Q00987 whole entry): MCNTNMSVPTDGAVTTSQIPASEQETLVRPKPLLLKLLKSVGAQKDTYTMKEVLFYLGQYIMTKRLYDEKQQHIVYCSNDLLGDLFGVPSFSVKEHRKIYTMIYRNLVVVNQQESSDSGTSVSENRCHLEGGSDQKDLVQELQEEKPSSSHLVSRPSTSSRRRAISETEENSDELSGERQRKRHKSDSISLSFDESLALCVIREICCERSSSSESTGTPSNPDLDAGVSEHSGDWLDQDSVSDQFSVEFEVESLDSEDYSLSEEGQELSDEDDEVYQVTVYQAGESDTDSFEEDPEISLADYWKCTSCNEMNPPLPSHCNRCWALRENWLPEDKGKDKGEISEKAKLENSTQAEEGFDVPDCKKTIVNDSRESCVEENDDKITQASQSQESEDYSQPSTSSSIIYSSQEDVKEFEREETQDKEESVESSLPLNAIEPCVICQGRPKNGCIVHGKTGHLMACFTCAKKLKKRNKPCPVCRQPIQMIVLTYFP

[15] = growth suppression of PTEN-null colon cells, dose response, cell-based, HCT116 PTEN knockout (AID 1047); type: functional;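 further: HCT116 colon tumor cells with PTEN knocked out; cells exposed to compound for 60 hours before readout; potency for loss of cell viability measured by luminescence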
[16] = growth suppression of beta-catenin-knockout colon cells, dose response, cell-based, HCT116, human colon tumor (AID 1045); type: functional;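 further: HCT116 colon tumor cells with beta catenin knocked out; cells exposed to compound for 60 hours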
[17] = Luminescence Cell-Based Dose Retest to Confirm Inhibitors of Cancer Stem Cells. [Related pubchem assays (depositor defined):AID2717, AID2721]; type: functional; conditions: Homo sapiens
[18] = Luminescence Cell-Based Dose Response to Identify Activators of 5'UTR Stem-Loop Driven Prion Protein mRNA Translation in H4-C Neuroglioblastoma Cells. [Related pubchem assays: 1829 (Project Summary), 1814 (Primary HTS)]; type: functional
H4 = experiment: Luminescence Cell-Based Dose Response HTS to Identify Activators of 5'UTR Stem-Loop Driven Prion Protein mRNA Translation in H4 Neuroglioblastoma Cells. [Related pubchem assays: 1829 (Project Summary), 1814 (Primary HTS)]; type: functional; conditions: Homo sapiens
[19] = Luminescence Cell-Based Dose Response to Identify Activators of Luciferase Translation or Activity in H4-C Neuroglioblastoma Cells. [Related pubchem assays: 1829 (Project Summary), 1814 (Primary HTS)]; type: functional
[20] = Luminescence Cell-Based Dose Confirmation to Identify Activators of 5'UTR Stem-Loop Driven Alpha-Synuclein mRNA Translation in H4 Neuroglioblastoma Cells. [Related pubchem assays: 1829 (Project Summary), 1814 (Primary HTS)]; type: functional
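Wherever AC50 is given: cells exposed to compound for roughly 70 hours or longer before luminescence read.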

Question: Which results are given for `COc1ccc(/N=C2/C(=N\c3ccc(OC)cc3)N(c3ccc(OC)cc3)C(=S)N2c2ccc(N(C)C)cc2)cc1`?
Answer: CC50 [1]: > 50 µM (active); EC50 [2]: 0.146 µM (active); EC50 [3]: 0.126 µM (active); EC50 [4]: 0.123 µM (active); IC50 (cells): 5.89 µM (active)

Question: For `CCn1cc(C(=O)NCC2CCCO2)c(=O)c2cc(S(=O)(=O)N3CCC(C)CC3)ccc21` (configuration not stated), which IC50 [5] is on record?
Answer: Its IC50 is > 100 µM (not active).

Question: What does the source list for `CC(C)Cn1c2c(c(O)c(C(=O)Nc3nccs3)c1=O)CCCC2`?
Answer: CC50 [6]: > 40 µM (active); IC50 [7]: 94.4 µM (active)

Question: With `Cc1ccc(NC(=O)CSc2nnc(-c3cnccn3)n2Cc2ccco2)cc1C` as the compound, how does the EC50 (Estrogen receptor) read?
Answer: Its EC50 is 37.6 µM (not active).

Question: Which IC50 [5] does the source give for `COc1ccc(OC)c(C2C(C(=O)Nc3ccccc3OC)=C(C)Nc3nc(CCCO)nn32)c1` (configuration not stated) here?
Answer: The IC50 was > 100 µM (not active).

Question: What does the source list for `COc1cc(CNc2ccc(N3CCCC3)cc2)cc(Cl)c1OC`?
Answer: EC50 [8]: 48.1 µM (inconclusive); EC50 [9]: > 38 µM (not active); EC50 [10]: 2.95 µM (active); EC50 [11]: > 30 µM (not active); IC50 [12]: > 50 µM (not active); IC50 [13]: > 80 µM (inactive); CC50 (Vero): 4.57 µM (active)

Question: For `CC(=O)Nc1ccc(S(=O)(=O)N(C)CC(=O)OCC(=O)N2CCc3ccccc32)cc1`, which EC50 [14] is on record?
Answer: The EC50 was 149 µM (not active).

Question: For `COc1ccc2c(c1)-c1nc(NC(=O)c3cccs3)sc1CC2`, which CC50 [1] is on record?
Answer: The CC50 was 7.91 µM (active).

Question: And the EC50 [15]?
Answer: Its EC50 is 22 µM (active).

Question: What about the EC50 [16] of the same compound?
Answer: Its EC50 is 21.4 µM (active).

Question: And the AC50 [17]?
Answer: The AC50 was 6.23 µM (active).

Question: What about the IC50 (cells) of the same compound?
Answer: Its IC50 is 26.8 µM (active).

Question: With `CC(C)(C)c1ccc(OCCn2ccccc2=O)cc1` as the compound, how does the EC50 [18] read?
Answer: The EC50 was 0.546 µM (active).

Question: And the EC50 (H4)?
Answer: Its EC50 is < 0.1 µM (active).

Question: And the EC50 [19]?
Answer: Its EC50 is 0.237 µM (active).

Question: And the EC50 [20]?
Answer: Its EC50 is 0.668 µM (active).
